Results from PubChem BioAssay AID220 (DTP/NCI, 2004).
“And” between values parts separate entries of the source, which are not always exact repeats. Identical values can stand only once. Records with an inconclusive call do not appear.

Test system: CD8F1 mice, subcutaneous mammary adenocarcinoma, T/C%
Assay: NCI In Vivo Anticancer Drug Screen. Data for tumor model Mammary Adenocarcinoma CD8F1 (subcutaneous) in CD8F1
Conditions: higher = larger tumour
Procedure: The antitumor activity of compounds was measured in mice bearing transplantable tumors. Survival or tumor size were measured and the results are expressed as the measurement made in the treated group (T) divided by the measurement made in the vehicle treated control group (C). The tumor model used in this assay is Mammary Adenocarcinoma CD8F1 (subcutaneous) in CD8F1

[1] = endpoint: median tumor weight (est.), dose: 6.25 mg/kg/injection, schedule: Q07DX005 (ip), vehicle: saline
[2] = endpoint: median tumor weight (est.), dose: 20.0 mg/kg/injection, schedule: Q07DX005 (ip), vehicle: Klucel (hydroxypropylcellulose) (HPC)
[3] = endpoint: median tumor weight change, dose: 62.5 mg/kg/injection, schedule: Q01DX001 (ip), vehicle: Klucel (hydroxypropylcellulose) (HPC)
[4] = endpoint: median tumor weight change, dose: 125.0 mg/kg/injection, schedule: Q01DX001 (ip), vehicle: Klucel (hydroxypropylcellulose) (HPC)
[5] = endpoint: median tumor weight change, dose: 250.0 mg/kg/injection, schedule: Q01DX001 (ip), vehicle: Klucel (hydroxypropylcellulose) (HPC)
[6] = endpoint: median tumor weight change, dose: 125.0 mg/kg/injection, schedule: Q01DX001 (ip), vehicle: saline
[7] = endpoint: median tumor weight change, dose: 250.0 mg/kg/injection, schedule: Q01DX001 (ip), vehicle: saline
[8] = endpoint: median tumor weight (est.), dose: 12.5 mg/kg/injection, schedule: Q07DX005 (ip), vehicle: Klucel (hydroxypropylcellulose) (HPC)
[9] = endpoint: median tumor weight (est.), dose: 25.0 mg/kg/injection, schedule: Q07DX005 (ip), vehicle: Klucel (hydroxypropylcellulose) (HPC)
[10] = endpoint: median tumor weight (est.), dose: 50.0 mg/kg/injection, schedule: Q07DX005 (ip), vehicle: Klucel (hydroxypropylcellulose) (HPC)
[11] = endpoint: median tumor weight (est.), dose: 100.0 mg/kg/injection, schedule: Q07DX005 (ip), vehicle: Klucel (hydroxypropylcellulose) (HPC)

CCc1ncnc2cc(OCC3CO3)c(OC)cc12 (centres undefined) was tested, and the T/C (endpoint: median tumor weight change, dose: 25.0 mg/kg/injection, schedule: Q01DX001 (ip), vehicle: suspension in saline) was 118 % of control, the T/C (endpoint: median tumor weight change, dose: 50.0 mg/kg/injection, schedule: Q01DX001 (ip), vehicle: suspension in saline) was 110 % of control and the T/C (endpoint: median tumor weight change, dose: 100.0 mg/kg/injection, schedule: Q01DX001 (ip), vehicle: suspension in saline) was 35 % of control. For the same compound, the T/C (endpoint: median tumor weight change, dose: 400.0 mg/kg/injection, schedule: Q01DX001 (ip), vehicle: suspension in saline) was 93 % of control.
For CC(=O)N(C)C, the T/C (endpoint: median tumor weight change, dose: 225.0 mg/kg/injection, schedule: Q01DX001 (ip), vehicle: saline) was 52 % of control, the T/C (endpoint: median tumor weight change, dose: 450.0 mg/kg/injection, schedule: Q01DX001 (ip), vehicle: saline) was 85 % of control and the T/C (endpoint: median tumor weight change, dose: 900.0 mg/kg/injection, schedule: Q01DX001 (ip), vehicle: saline) was 72 % of control and 78 % of control.
In the case of O=C(CN1CCOCC1)Nc1nc(-c2ccc(Cl)cc2)cs1, the T/C (endpoint: median tumor weight change, dose: 50.0 mg/kg/injection, schedule: Q01DX001 (ip), vehicle: saline with Tween-80) is reported as 47 % of control, the T/C (endpoint: median tumor weight change, dose: 100.0 mg/kg/injection, schedule: Q01DX001 (ip), vehicle: saline with Tween-80) is reported as 20 % of control and the T/C (endpoint: median tumor weight change, dose: 200.0 mg/kg/injection, schedule: Q01DX001 (ip), vehicle: saline with Tween-80) is reported as 49 % of control. The T/C (endpoint: median tumor weight change, dose: 400.0 mg/kg/injection, schedule: Q01DX001 (ip), vehicle: saline with Tween-80) was 35 % of control and the T/C (endpoint: median tumor weight change, dose: 800.0 mg/kg/injection, schedule: Q01DX001 (ip), vehicle: saline with Tween-80) was 28 % of control.
With O=C1C=C(C2OC(CO)C(O)C2O)C(=O)N1 (centres undefined) the T/C (endpoint: median tumor weight (est.), dose: 1.56 mg/kg/injection, schedule: Q07DX005 (ip), vehicle: saline) was 73 % of control and the T/C [1] was 114 % of control.
With Cc1[nH]c(=O)[nH]c(=O)c1N(CCF)CCCl the T/C (endpoint: median tumor weight (est.), dose: 2.5 mg/kg/injection, schedule: Q07DX005 (ip), vehicle: Klucel (hydroxypropylcellulose) (HPC)) was 113 % of control, the T/C (endpoint: median tumor weight (est.), dose: 5.0 mg/kg/injection, schedule: Q07DX005 (ip), vehicle: Klucel (hydroxypropylcellulose) (HPC)) was 97 % of control and the T/C (endpoint: median tumor weight (est.), dose: 10.0 mg/kg/injection, schedule: Q07DX005 (ip), vehicle: Klucel (hydroxypropylcellulose) (HPC)) was 79 % of control. The T/C [2] was 63 % of control and the T/C (endpoint: median tumor weight change, dose: 100.0 mg/kg/injection, schedule: Q01DX001 (ip), vehicle: Klucel (hydroxypropylcellulose) (HPC)) was 68 % of control.
For CCCCCNc1ncnc2c(C)[nH]nc12, the T/C [3] was 101 % of control, the T/C [4] was 89 % of control and the T/C [5] was 71 % of control.
For CC1=NN(c2cccc(S(=O)(=O)O)c2)C(=O)C1N=Nc1cc(Cl)cc(S(=O)(=O)O)c1O.CC1=NN(c2cccc(S(=O)(=O)O)c2)C(=O)C1N=Nc1cc(Cl)cc(S(=O)(=O)O)c1O.[Cr] (centres undefined), the T/C [6] was 245 % of control and the T/C [7] was 184 % of control.
In the case of COC(=O)CC(N)C(=O)O (centres undefined), the T/C [6] is reported as 60 % of control and the T/C [7] is reported as 61 % of control.
For OCCOCCN1CCN(CCCN2c3ccccc3Sc3ccc(C(F)(F)F)cc32)CC1, the T/C (endpoint: median tumor weight (est.), dose: 3.12 mg/kg/injection, schedule: Q07DX005 (ip), vehicle: saline) was 53 % of control, the T/C [1] was 97 % of control and the T/C (endpoint: median tumor weight (est.), dose: 12.5 mg/kg/injection, schedule: Q07DX005 (ip), vehicle: saline) was 95 % of control. For the same compound, the T/C (endpoint: median tumor weight (est.), dose: 25.0 mg/kg/injection, schedule: Q07DX005 (ip), vehicle: saline) was 71 % of control and the T/C (endpoint: median tumor weight (est.), dose: 50.0 mg/kg/injection, schedule: Q07DX005 (ip), vehicle: saline) was 97 % of control.
CC(=O)OC1=NC(C)c2c1cc(OC(C)=O)[nH]c2=O (centres undefined) was tested, and the T/C [8] was 86 % of control, the T/C [9] was 168 % of control and the T/C [10] was 111 % of control.
Cc1c(N)nc(C(CC(N)=O)NCC(N)C(N)=O)nc1C(=O)NC(C(=O)NC(C)C(O)CC(=O)NC(C(=O)NC(OC1OC(C)C(N)C(O)C1O)C(O)c1nc(-c2nc(C(=O)NCCCC(N)CC(=O)NCCCNCCCCN)cs2)cs1)C(C)O)C(OC1OC(CO)C(O)C(O)C1OC1OC(CO)C(O)C(OC(N)=O)C1O)c1cnc[nH]1 (centres undefined) was tested, and the T/C (endpoint: median tumor weight (est.), dose: 2.0 mg/kg/injection, schedule: Q07DX005 (ip), vehicle: saline) was 15 % of control, the T/C (endpoint: median tumor weight (est.), dose: 4.0 mg/kg/injection, schedule: Q07DX005 (ip), vehicle: saline) was 20 % of control and the T/C (endpoint: median tumor weight (est.), dose: 8.0 mg/kg/injection, schedule: Q07DX005 (ip), vehicle: saline) was 10 % of control.
O=C1NC2(CCCCC2)C(=O)N1CCN(CCCl)CCCl was tested, and the T/C (endpoint: mean tumor weight, dose: 3.0 mg/kg/injection, schedule: Q07DX005 (ip), vehicle: Klucel (hydroxypropylcellulose) (HPC)) was 81 % of control, the T/C (endpoint: mean tumor weight, dose: 6.0 mg/kg/injection, schedule: Q07DX005 (ip), vehicle: Klucel (hydroxypropylcellulose) (HPC)) was 82 % of control and the T/C (endpoint: mean tumor weight, dose: 12.0 mg/kg/injection, schedule: Q07DX005 (ip), vehicle: Klucel (hydroxypropylcellulose) (HPC)) was 42 % of control. For the same compound, the T/C (endpoint: mean tumor weight, dose: 24.0 mg/kg/injection, schedule: Q07DX005 (ip), vehicle: Klucel (hydroxypropylcellulose) (HPC)) was 26 % of control, the T/C (endpoint: median tumor weight (est.), dose: 3.0 mg/kg/injection, schedule: Q07DX005 (ip), vehicle: saline) was 68 % of control and the T/C (endpoint: median tumor weight (est.), dose: 6.0 mg/kg/injection, schedule: Q07DX005 (ip), vehicle: saline) was 75 % of control. The T/C (endpoint: median tumor weight (est.), dose: 12.0 mg/kg/injection, schedule: Q07DX005 (ip), vehicle: saline) was 45 % of control, the T/C (endpoint: median tumor weight (est.), dose: 24.0 mg/kg/injection, schedule: Q07DX005 (ip), vehicle: saline) was 6 % of control and the T/C (endpoint: median tumor weight change, dose: 9.0 mg/kg/injection, schedule: Q01DX001 (ip), vehicle: saline with Tween-80) was 60 % of control. For the same compound, the T/C (endpoint: median tumor weight change, dose: 9.38 mg/kg/injection, schedule: Q01DX001 (ip), vehicle: saline with Tween-80) was 75 % of control, the T/C (endpoint: median tumor weight change, dose: 18.0 mg/kg/injection, schedule: Q01DX001 (ip), vehicle: saline with Tween-80) was 62 % of control and the T/C (endpoint: median tumor weight change, dose: 37.0 mg/kg/injection, schedule: Q01DX001 (ip), vehicle: saline with Tween-80) was 32 % of control. For the same compound, the T/C (endpoint: median tumor weight change, dose: 75.0 mg/kg/injection, schedule: Q01DX001 (ip), vehicle: saline with Tween-80) was 19 % of control.
In the case of Cc1nn(CCO)c(C)c1N=[N+]([O-])c1c(C)nn(CCO)c1C, the T/C (endpoint: median tumor weight (est.), dose: 6.25 mg/kg/injection, schedule: Q07DX005 (ip), vehicle: Klucel (hydroxypropylcellulose) (HPC)) is reported as 57 % of control, the T/C [8] is reported as 63 % of control and the T/C [9] is reported as 91 % of control. For the same compound, the T/C [10] was 104 % of control and the T/C [11] was 43 % of control.
In the case of CC[C@@]1(O)C(=O)OCc2c1cc1n(c2=O)Cc2cc3ccccc3nc2-1, the T/C (endpoint: median tumor weight change, dose: 1.5 mg/kg/injection, schedule: Q01DX001 (ip), vehicle: saline with Tween-80) is reported as 64 % of control, the T/C (endpoint: median tumor weight change, dose: 6.0 mg/kg/injection, schedule: Q01DX001 (ip), vehicle: saline with Tween-80) is reported as 56 % of control and 73 % of control and the T/C (endpoint: median tumor weight change, dose: 12.0 mg/kg/injection, schedule: Q01DX001 (ip), vehicle: saline with Tween-80) is reported as 62 % of control. The T/C (endpoint: median tumor weight change, dose: 24.0 mg/kg/injection, schedule: Q01DX001 (ip), vehicle: saline with Tween-80) was 5 % of control and 10 % of control.
With CN(C)N=Nc1cccc(C(N)=O)c1 the T/C [2] was 80 % of control and the T/C (endpoint: median tumor weight (est.), dose: 160.0 mg/kg/injection, schedule: Q07DX005 (ip), vehicle: Klucel (hydroxypropylcellulose) (HPC)) was 54 % of control.
For COC1C(O)C(C)OC(OC2C(Oc3cccc4c(O)c5c(=O)oc6ccc(C)c7c(=O)oc(c34)c5c67)OC(C)C(O)C2O)C1O (centres undefined), the T/C [8] was 73 % of control, the T/C [9] was 75 % of control and the T/C [10] was 50 % of control.
For CC(=O)OCC(=O)[C@@]12OC(C)(C)O[C@@H]1C[C@H]1[C@@H]3CC(C=O)=C4C=C(OCCCl)CC[C@]4(C)[C@@]3(F)[C@@H](O)C[C@@]12C, the T/C [9] was 41 % of control and 62 % of control, the T/C [11] was 1 % of control and 16 % of control and the T/C (endpoint: median tumor weight (est.), dose: 200.0 mg/kg/injection, schedule: Q07DX005 (ip), vehicle: Klucel (hydroxypropylcellulose) (HPC)) was 1 % of control and 7 % of control. The T/C (endpoint: median tumor weight change, dose: 62.0 mg/kg/injection, schedule: Q01DX001 (ip), vehicle: Klucel (hydroxypropylcellulose) (HPC)) was 32 % of control and the T/C [3] was 66 % of control.
C[Si](C)(C)OSc1ccccc1[N+](=O)[O-] was tested, and the T/C [4] was 158 % of control, the T/C [5] was 120 % of control and the T/C (endpoint: median tumor weight change, dose: 500.0 mg/kg/injection, schedule: Q01DX001 (ip), vehicle: Klucel (hydroxypropylcellulose) (HPC)) was 93 % of control. For the same compound, the T/C (endpoint: median tumor weight change, dose: 1000.0 mg/kg/injection, schedule: Q01DX001 (ip), vehicle: Klucel (hydroxypropylcellulose) (HPC)) was 120 % of control and the T/C (endpoint: median tumor weight change, dose: 2000.0 mg/kg/injection, schedule: Q01DX001 (ip), vehicle: Klucel (hydroxypropylcellulose) (HPC)) was 97 % of control.
